The text below walks through data of patent US20120264735A1 (priority 2009, published 2012).

T1 sequence (P08581 25-1390): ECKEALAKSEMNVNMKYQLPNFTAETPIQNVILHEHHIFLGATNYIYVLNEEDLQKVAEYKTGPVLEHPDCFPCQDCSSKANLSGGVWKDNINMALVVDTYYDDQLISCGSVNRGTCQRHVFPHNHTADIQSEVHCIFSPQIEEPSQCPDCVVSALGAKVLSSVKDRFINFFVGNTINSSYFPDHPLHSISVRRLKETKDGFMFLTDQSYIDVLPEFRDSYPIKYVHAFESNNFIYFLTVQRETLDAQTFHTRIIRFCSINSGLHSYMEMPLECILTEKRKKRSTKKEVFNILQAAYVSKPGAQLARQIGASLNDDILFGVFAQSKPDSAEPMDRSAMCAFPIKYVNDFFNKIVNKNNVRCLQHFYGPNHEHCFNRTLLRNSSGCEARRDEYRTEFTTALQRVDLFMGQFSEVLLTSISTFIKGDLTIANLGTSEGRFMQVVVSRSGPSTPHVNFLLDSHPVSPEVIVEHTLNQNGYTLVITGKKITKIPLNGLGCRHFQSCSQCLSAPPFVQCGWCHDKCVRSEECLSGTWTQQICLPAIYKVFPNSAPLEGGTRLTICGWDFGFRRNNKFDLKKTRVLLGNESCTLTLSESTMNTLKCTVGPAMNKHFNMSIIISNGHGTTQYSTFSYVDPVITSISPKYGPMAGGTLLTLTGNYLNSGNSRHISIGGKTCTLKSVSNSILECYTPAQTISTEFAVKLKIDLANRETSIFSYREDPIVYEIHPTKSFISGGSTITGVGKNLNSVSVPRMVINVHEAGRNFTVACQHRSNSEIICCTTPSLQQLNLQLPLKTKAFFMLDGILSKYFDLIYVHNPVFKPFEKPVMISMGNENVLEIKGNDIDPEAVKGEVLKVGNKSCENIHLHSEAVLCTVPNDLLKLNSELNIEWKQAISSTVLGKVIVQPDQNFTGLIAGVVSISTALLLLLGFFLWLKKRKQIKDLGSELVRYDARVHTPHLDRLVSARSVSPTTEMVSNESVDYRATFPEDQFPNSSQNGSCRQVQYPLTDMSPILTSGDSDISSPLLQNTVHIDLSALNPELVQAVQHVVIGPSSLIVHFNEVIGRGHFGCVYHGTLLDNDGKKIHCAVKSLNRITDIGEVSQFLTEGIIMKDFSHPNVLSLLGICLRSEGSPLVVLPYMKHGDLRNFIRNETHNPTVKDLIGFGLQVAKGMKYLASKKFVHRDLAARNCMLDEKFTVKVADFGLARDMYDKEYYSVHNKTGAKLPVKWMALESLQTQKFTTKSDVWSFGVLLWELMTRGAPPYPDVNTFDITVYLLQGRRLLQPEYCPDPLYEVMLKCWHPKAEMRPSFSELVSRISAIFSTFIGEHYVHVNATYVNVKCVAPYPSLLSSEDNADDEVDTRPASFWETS

The assay has as its target T1, c-Met kinase (recombinant c-Met) (Homo sapiens, UniProt P08581).
T1 construct: 0.27 nM recombinant c-Met
Put plainly: In vitro kinase assay I (homogeneous time-resolved fluorescence tyrosine kinase assay). The class given is biochemical. On the procedure:
The kinase activities of c-Met are measured using a modified version of the homogeneous-time-resolved tyrosine kinase assay described by Park et al. (1999, Anal. Biochem. 269:94-104).
The procedure for determining the potency of a compound to inhibit c-Met kinase comprises the following steps: • 1. Prepare 3-fold serial diluted compound solutions in 100% dimethyl sulfoxide (DMSO) at 20× of the desired final concentrations in a 384-well plate. • 2. Prepare a master reaction mix containing 6.67 mM MgCl2, 133.3 mM NaCl, 66.7 mM Tris-HCl (pH 7.4), 0.13 mg/ml BSA, 2.67 mM dithiothreitol, 0.27 nM recombinant c-Met and 666.7 nM biotinylated synthetic peptide substrate (biotin-ahx-EQEDEPEGDYFEWLE-CONH2) (SEQ.ID.NO.:1). • 3. In a black assay plate, add 1.5 μl of compound solution (or DMSO) and 22.5 μl of master reaction mix per well. Initiate the kinase reaction by adding 6 μl of 0.25 mM MgATP per well. Allow the reactions to proceed for 60 min at room temperature. The final conditions for the reaction are 0.2 nM c-Met, 0.5 μM substrate, 50 μM MgATP, 5 mM MgCl2, 100 mM NaCl, 2 mM DTT, 0.1 mg/ml BSA, 50 mM Tris (pH 7.4) and 5% DMSO. • 4. Stop the kinase reaction with 30 μl of Stop/Detection buffer containing 10 mM EDTA, 25 mM HEPES, 0.1% TRITON X-100, 0.750 nM Eu-chelate labeled anti-phosphotyrosine antibody PY20 (cat. #AD0067, PerkinElmer) and 50 μg/ml Streptavidin-allophycocyanin conjugate (cat. #PJ25S, Prozyme). • 5. Read HTRF signals on a Victor reader (PerkinElmer) in HTRF mode after 60-min incubation at room temperature in the dark. • 6. IC50 is determined by fitting the observed relationship between compound concentration and HTRF signal with a 4-parameter logistic equation. II. GTL-16 pY1349 Cell-Based Assay
As to `O=C(Nc1cccc(Cc2nn(-c3cc(F)c(F)c(F)c3)ccc2=O)c1)OCCN1CCCC1=O` [Example 549, 2-(2-oxopyrrolidin-1-yl)ethyl (3-{[4-oxo-1-(3,4,5-trifluorophenyl)-1,4-dihydropyridazin-3-yl]methyl}phenyl)carbamate], the IC50 is below 100 nM.

Regarding `Cn1cc(-n2ccc(=O)c(Cc3cccc(-c4ncc(-c5ccc(C#N)nc5)cn4)c3)n2)cn1` [Example 413, 5-[2-(3-{[1-(1-methyl-1H-pyrazol-4-yl)-4-oxo-1,4-dihydropyrida-zin-3-yl]methyl}phenyl)pyrimidin-5-yl]pyridine-2-carbonitrile], the IC50 is below 100 nM.

Consider `CNC(=O)c1cnc(-c2cccc(Cc3nn(-c4cnn(C)c4)ccc3=O)c2)nc1` [Example 485, N-methyl-2-(3-{[1-(1-methyl-1H-pyrazol-4-yl)-4-oxo-1,4-dihydro-pyridazin-3-yl]methyl}phenyl)pyrimidine-5-carboxamide], for which the IC50 was below 100 nM.

In the case of `CCn1cc(-n2ccc(=O)c(C(C)c3cccc(-c4ncc(OC)cn4)c3)n2)cn1` (single isomer, unassigned) [Example 333, 1-(1-ethyl-1H-pyrazol-4-yl)-3-{(1R or S)-1-[3-(5-methoxypyrimidin-2-yl)phenyl]ethyl}pyridazin-4(1H)-one], the concentration for half-maximal inhibition (IC50) is below 100 nM.

On to `Cn1cc(-n2ccc(=O)c(Cc3cccc(-c4ncc(OCC(=O)OC(C)(C)C)cn4)c3)n2)cn1` [Example 287, tert-butyl [2-(3-{[1-(1-methyl-1H-pyrazol-4-yl)-4-oxo-1,4-dihydropyridazin-3-yl]methyl}phenyl)pyrimidin-5-yl]oxyacetate], for which the IC50 is below 100 nM.

As to `COCCNc1ccnc(-c2cccc(C(C)c3nn(-c4cnn(C)c4)ccc3=O)c2)n1` (single isomer, unassigned) [Example 695, 3-[(1R or S)-1-(3-{4-[(2-Methoxyethyl)amino]pyrimidin-2-yl}phenyl)ethyl]-1-(1-methyl-1H-pyrazol-4-yl)pyridazin-4(1H)-one], the IC50 was 100 to 1000 nM.

In the case of `Cn1cc(-n2ccc(=O)c(Cc3cccc(-c4ncc(C(=O)NCCN5CCOCC5)cn4)c3)n2)cn1` [Example 477, 2-(3-{[1-(1-methyl-1H-pyrazol-4-yl)-4-oxo-1,4-dihydro-pyridazin-3-yl]methyl}phenyl)-N-(2-morpholin-4-ylethyl)pyrimidine-5-carboxamide], the IC50 was below 100 nM.

`Cn1cc(-n2ccc(=O)c(Cc3cccc(-c4ncc(CN5CCCC5)cn4)c3)n2)cn1` [Example 429, 1-(1-methyl-1H-pyrazol-4-yl)-3-{3-[5-(pyrrolidin-1-ylmethyl)pyrimidin-2-yl]benzyl}pyridazin-4(1H)-one]: the IC50 was below 100 nM.

For `CC(C)Cn1cc(-n2ccc(=O)c(Cc3cccc(NC(=O)OCCN4CCOCC4)c3)n2)cn1` [Example 96, 2-morpholin-4-ylethyl [3-({1-[1-(2-methylpropyl)-1H-pyrazol-4-yl]-4-oxo-1,4-dihydropyridazin-3-yl}methyl)phenyl]carbamate], the IC50 is 100 to 1000 nM.

For `CCOc1cnc(-c2cccc(Cc3nn(-c4cccc(C(N)=O)c4)ccc3=O)c2)nc1` [Example 736, 3-[3-[3-(5-ethoxypyrimidin-2-yl)benzyl]-4-oxopyridazin-1(4H)-yl]benzamide], the IC50 was below 100 nM.

With `Cn1cc(-n2ccc(=O)c(Cc3cccc(-c4ncc(-c5cnoc5)cn4)c3)n2)cn1` [Example 423, 3-[3-(5-isoxazol-4-ylpyrimidin-2-yl)benzyl]-1-(1-methyl-1H-pyrazol-4-yl)pyridazin-4(1H)-one], the IC50 is below 100 nM.

In the case of `CC(C)COC(=O)Nc1cccc(Cc2nn(-c3ccc(-c4cn[nH]c4)cc3)ccc2=O)c1` [Example 731, 2-methylpropyl [3-({4-oxo-1-[4-(1H-pyrazol-4-yl)phenyl]-1,4-dihydropyridazin-3-yl}methyl)phenyl] carbamate], the IC50 was below 100 nM.

For `Cn1cc(-n2ccc(=O)c(Cc3cccc(NC(=O)OCC(C)(C)C)c3)n2)cn1` [Example 501, 2,2-dimethylpropyl (3-{[1-(1-methyl-1H-pyrazol-4-yl)-4-oxo-1,4-dihydropyridazin-3-yl]methyl}phenyl)carbamate], the IC50 was below 100 nM.

With `Cn1cc(-n2ccc(=O)c(Cc3cccc(-c4ncc(N5CCS(=O)(=O)CC5)cn4)c3)n2)cn1` [Example 448, 3-{3-[5-(1,1-dioxidothio-morpholin-4-yl]pyrimidin-2-yl]benzyl}-1-(1-methyl-1H-pyrazol-4-yl)pyridazin-4(1H)-one], the IC50 was below 100 nM.

With `CC(C)COC(=O)Nc1cccc(Cc2nn(-c3cnn(CC4CCOCC4)c3)ccc2=O)c1` [Example 102, 2-methylpropyl [3-({4-oxo-1-[1-(tetrahydro-2H-pyran-4-ylmethyl)-1H-pyrazol-4-yl]-1,4-dihydropyridazin-3-yl}methyl)phenyl]carbamate], the IC50 is 100 to 1000 nM.

As for `CCn1cc(-n2ccc(=O)c(C(C)c3cccc(-c4ncn(CC)n4)c3)n2)cn1` (single isomer, unassigned) [Example 687, 1-(1-ethyl-1H-pyrazol-4-yl)-3-{(1R or S)-1-[3-(1-ethyl-1H-1,2,4-triazol-3-yl)phenyl]ethyl} pyridazin-4(1H)-one], the IC50 is below 100 nM.

Regarding `CCOc1cnc(-c2cccc(C(C)c3nn(-c4cnn(C)c4)ccc3=O)c2)nc1` (single isomer, unassigned) [Example 201, 3-{(1S or R)-1-[3-(5-ethoxypyrimidin-2-yl)phenyl]ethyl}-1-(1-methyl-1H-pyrazol-4-yl)pyridazin-4(1H)-one], the IC50 lay in the range of 100 to 1000 nM.

Take `N#Cc1cc(F)cc(-n2ccc(=O)c(Cc3cccc(NC(=O)OCC4CCOC4)c3)n2)c1` (racemic) [Example 131, rac-tetrahydrofuran-3-ylmethyl (3-{[1-(3-cyano-5-fluorophenyl)-4-oxo-1,4-dihydropyridazin-3-yl]methyl}phenyl)carbamate]: the IC50 is below 100 nM.

Regarding `COc1cnc(-c2cccc(Cc3nn(-c4cncc(C)c4)ccc3=O)c2)nc1` [Example 37, 3-[3-(5-methoxypyrimidin-2-yl)benzyl]-1-(5-methylpyridin-3-yl)pyridazin-4(1H)-one], the IC50 was below 100 nM.

As for `CC(C)COC(=O)Nc1cccc(Cc2nn(-c3cnn(CCC(=O)O)c3)ccc2=O)c1` [Example 182, 3-{4-[3-(3-{[(2-methylpropoxy)carbonyl]amino}benzyl)-4-oxopyridazin-1(4H)-yl]-1H-pyrazol-1-yl}propanoic acid], the IC50 is below 100 nM.

Turning to `CCOc1cnc(-c2cccc(Cc3nn(-c4cnn(CC)c4)ccc3=O)c2)nc1` [Example 150, 3-[3-(5-ethoxypyrimidin-2-yl)benzyl]-1-(1-ethyl-1H-pyrazol-4-yl)pyridazin-4(1H)-one], the IC50 was below 100 nM.

For the compound `CCCn1cnc(-c2cccc(C(C)c3nn(-c4cnn(CC)c4)ccc3=O)c2)n1` (single isomer, unassigned) [Example 688, 1-(1-ethyl-1H-pyrazol-4-yl)-3-{(1S or R)-1-[3-(1-propyl-1H-1,2,4-triazol-3-yl)phenyl]ethyl} pyridazin-4(1H)-one], the IC50 was in the range of 100 to 1000 nM.

Consider `CCOc1cnc(-c2cccc(Cc3nn(-c4cnn(C5CNC5)c4)ccc3=O)c2)nc1` [Example 663, 1-(1-Azetidin-3-yl-1H-pyrazol-4-yl)-3-[3-(5-ethoxypyrimidin-2-yl)benzyl]pyridazin-4(1H)-one], for which the IC50 is below 100 nM.

By IC50 is commonly meant the point on the concentration scale where inhibition reaches its midpoint.
